In experiment [1] the test system is diet induced obese Sprague-Dawley rats. Description: Anti-obese activity in diet induced obese rats (therapeutic). It is filed as in vivo, rat. The settings on record: 7 mg/kg body weight, 5 weeks after 8 weeks high fat diet, vs control group. On the procedure:
Anti-Obese Activity of Holoptelea integrifolia in Diet Induced Obese Rats.
Selected healthy Sprague-Dawley rats were randomly assigned to control or various treatment groups (n=6). All the animals allocated for the study were made obese through dietary intervention by feeding high fat diet ad libitum for 8 weeks. After 8 weeks, the treatment group of animals was given oral administration of 250 mg/kg or 500 mg/kg of Holoptelea integrifolia alcohol extract in 10 mL of 0.5% CMC, using gastric tube for 5 week study duration. Sibutramine (7 mg/kg body weight) is used as a positive control. The control group of animals were given 10 ml/kg of 0.5% CMC. Food and water consumption were recorded daily, body weights were recorded weekly and fasting blood samples were collected before initiation after 5th week of the study. The weight gain for different groups compared at weekly intervals (FIG. II).

In experiment [2] the test system is Sprague-Dawley rats on high fat diet. Description: Protective effect against diet induced obesity in rats. Type of experiment: in vivo, rat. The settings on record: 7 mg/kg body weight, 8 weeks, vs control group. On the procedure: Protective Effect of Holoptelea integrifolia Against Diet Induced Obesity in Rats.
Selected healthy Sprague-Dawley rats were randomly assigned to control or various treatment groups (n=6). All the animals allocated for protective phase of the study were on dietary intervention by feeding high fat diet ad libitum and the animals allocated to treatment groups were simultaneously given oral administration of 100 mg or 250 mg/kg Holoptelea integrifolia methanol extract in 10 mL of 0.5% CMC, using gastric tube for the entire 8 week study duration. The test animals of the control group were simultaneously given 10 ml/kg of 0.5% CMC. Sibutramine (7 mg/kg body weight) was used as a positive control. Food and water consumption were recorded daily, body weights were recorded weekly and fasting blood samples were collected before initiation, after 4th week and 8th week (termination) of the study. The weight gain is plotted against the study duration in weeks (FIG. I). […] Upon administration of Holoptelea integrifolia alcohol extract for a period of 60 days, the level of triglyceride in the obese rats was reduced by 50% compared to the control. The levels of serum cholesterol and LDL were reduced by 40% and 45% respectively, whereas the level of HDL was increased by 25%.

In the case of `CC(C)CC(N(C)C)C1(c2ccc(Cl)cc2)CCC1` (centres unmarked) [Sibutramine], the “reduction in weight gain” value in experiment [1] was found to be 123.1%; in experiment [2] it was 30.5%.

The values are drawn from patent US9504722B2, “Anti-obese compositions containing holoptelea integrifolia extracts” (Laila Nutraceuticals, priority 2007, dated 2016).
